Test: Accelerated stability testing (HPLC assay and purity)
Assay type: physicochemical
Settings: for Assay (%): assay criterion 95%-105%
Experimental: The stability of Phosphate Polymorphic Form and Free Base Polymorphic Form A were evaluated under accelerated conditions.
Appropriately 2 mg of compounds were accurately weighed into a glass vial, then added diluents (ACN/water, 50/50) and sonicated for 2 minutes to dilute the target concentration of 0.2 mg/mL. The solution was equilibrated to room temperature and then the purity of the compounds was determined by HPLC.

Purity (%) (40° C./75% RH (open), 1 week): 99.02% | Assay (%) (40° C./75% RH (open), 1 week): 97.12% | Purity (%) (80° C. (open), 1 week): 98.94% | Assay (%) (80° C. (open), 1 week): 95.99% | Purity (%) (Initial): 98.91% | Assay (%) (Initial): 104.60% | Purity (%) (Light, ~50 h): 97.55% | Assay (%) (Light, ~50 h): 95.25%
Structure (SMILES): CC(C)(O)c1cnn2c(-c3ccc(F)c(-c4c(F)cccc4C#N)c3)cnc2n1.O=P(O)(O)O [Phosphate Polymorphic Form A, 2′,6-difluoro-5′-[3-(1-hydroxy-1-methylethyl)-imidazo[1,2-b][1,2,4]triazin-7-yl]biphenyl-2-carbonitrile]
